Laboratory results: paper PMC6857076 (Pharmacology Research & Perspectives, 2019)

Tested on: JAK-dependent cytokine receptors
Test: Integrated modeling: calculated cytokine receptor inhibitory concentrations (ICxx)
Set-up: species or system human
Conditions: calculated ICxx at clinically meaningful doses, Figure 1
Excerpt: An integrated modeling approach was applied to determine cytokine receptor inhibition profiles. Whole blood IC50 values were converted to unbound values (IC50,u) using measured blood‐to‐plasma ratios and measured fu values, as shown in Equation 2:(2) IC50,u=IC50/blood:plasma ratio×fu

SMILES: CC[C@@H]1CN(C(=O)NCC(F)(F)F)C[C@@H]1c1cnc2cnc3[nH]ccc3n12 [Upadacitinib]
- Inhibition (ICxx) of JAK1/JAK2-mediated (IFNγ, G-CSF) and JAK2-mediated (TPO, IL-3, GM-CSF) cytokine receptors vs other JAK inhibitors: numerically greater
